Assay [1] deals with mixed neuronal-astrocyte cultures. Put plainly: cells. As to conditions: Mus musculus.
For assay [2], the system named is pure neuronal cultures (cortical neurons) exposed to glutamine. The assay can be described thus: cells. As to conditions: Mus musculus, Cortical neurone, 24 h, read-out: neuronal LDH release.
For assay [3], the system named is glial cultures (astrocytes). The assay can be described thus: Glutamate and cell death in glial cultures exposed to hypoxia with glutamine. As to conditions: for Glu: hypoxia, 2 mM Gln. Format: cell-based, mouse (Swiss Webster). As for the experimental part:
Measurements of glutamate and glutamine concentrations, as well as of the release of the cytoplasmic marker enzyme, lactate dehydrogenase (LDH), were made with the medium of mixed neuronal-astrocyte cultures exposed to hypoxic and control conditions, with and without the addition of 2 mM glutamine. For comparative purposes, the measurements were made in mixed cultures in which complete neuronal death was caused by a 5h exposure to 500 μM NMDA. The first glutamate measurement was made at the end of hypoxia (5h with mixed cultures, 7h with astrocytes), and the second at 19 h after the subsequent return of oxygen. If added, glutamine was present during and after hypoxia. LDH released by the experimental treatment was measured at 24 h, and is expressed as a percentage of the total cellular content (neurons in mixed cultures, and glia in glial cultures). To verify the neuronal origin of LDH and glutamate, similar experiments were performed on cultures that only contained glia.
Astrocytes were cultured from cortical cell suspensions from 1-2 day old Swiss Webster mouse pups. Mixed cultures of neurons and astrocytes were obtained by plating cortical neurons from embryonic day 15-16 mice on confluent astrocyte monolayers. Pure neuronal cultures were made from the same embryonic cortical cell suspensions; astrocyte growth was inhibited by adding cytosine arabinoside and decreasing serum in the medium. For survival, neuronal cultures were fed with glial conditioned medium. Neuronal cultures were used for experiments at 11-15 days in vitro, and mixed cultures at 13-15 days after plating the neurons.
Hypoxia was carried out at 37° C. in an anoxic chamber (<0.2% oxygen; Forma Scientific). Before each experiment, the medium was pre-equilibrated with an anoxic gas mixture containing 5% CO2, 85% N2 and 10% H2 and incubated at 37° C. […] The oxygen tension in the anoxic chamber was monitored using an oxygen electrode (Model MI-730; Microelectrodes Inc.). […]

A further assay relates to glutaminase. As to conditions: Kovacevic and McGiven, 1983; read-out: Km of glutaminase for glutamine; cited from earlier work.
The subject of assay [4] is pure neuronal cultures (cortical neurons) exposed to glutamine.

Data on one compound can be found in patent US6310093A (priority 1998, dated 2001).

Each structure is given as a SMILES string. Where two headings read alike, the source gives them in different places.

In general, Km refers to the concentration of substrate that gives half-maximal velocity. Regarding `NC(=O)CC[C@H](N)C(=O)O` [Gln, glutamine], the cytotoxicity at 2000 µM in assay [1] (7 h, read-out: neuronal LDH release) is 48.5 ± 14.4%; in assay [1] (24 h, read-out: % cell death (LDH)) it was 42.2%; in assay [1] (read-out: neuronal death in hypoxia with added glutamine), approximately 40%; in assay [2] it was 62 ± 22%; in assay [3] (Mus musculus, Astrocyte, 24 h, read-out: % cell death (LDH)) it was 2 to 5%. For the same compound, the Glu in assay [3] (7 h) is 0.39 ± .09 µM; in assay [3] (24 h) it was 0.39 ± 0.07 µM. For the same compound, the Km in the assay with glutaminase is 2 to 8 mM. This compound also showed a medium glutamate in assay [4] of 197 ± 23 μM Glu.
